Like-named read-outs stand apart in the source and are kept apart here.
How the values were obtained:
Assay type in all cases: biochemical
[1] = target: T1, B. subtilis GCYH-IB (Bacillus subtilis, UniProt P94398); conditions: for metal ion supports catalysis: apoenzyme assayed with specific metal ions over a broad concentration range; for relative activity (%): at the metal concentration for optimal activity, relative to Mn(II); for [Metal] (metal concentration for optimal activity): apoenzyme 2 μM, metal 0.1 μM-4 mM, 0.1 mM GTP
T1 construct: His6 (cleaved yes); made in house; host or cells: E. coli BL21 (DE3), pET-30 Xa/LIC plasmid pSAB-9-61
T1 sequence (P94398 1-304): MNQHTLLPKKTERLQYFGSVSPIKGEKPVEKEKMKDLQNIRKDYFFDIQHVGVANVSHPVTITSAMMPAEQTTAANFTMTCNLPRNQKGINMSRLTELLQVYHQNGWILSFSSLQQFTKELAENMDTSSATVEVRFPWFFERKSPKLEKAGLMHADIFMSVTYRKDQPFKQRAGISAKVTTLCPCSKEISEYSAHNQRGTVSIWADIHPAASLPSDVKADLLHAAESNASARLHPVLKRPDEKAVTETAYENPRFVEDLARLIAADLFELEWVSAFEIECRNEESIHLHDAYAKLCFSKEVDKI
Experimental: It is well established that GCYH-IA uses a bound Zn^2+ ion for activity. Nichol et al., 1985. To investigate the metal dependence of GCYH-IB, the purified recombinant B. subtilis enzyme was assayed for activity in the presence of a variety of metal ions or EDTA. […] To obtain unambiguous, quantitative data on the effect of various metal ions on catalytic activity, the enzyme was first demetallated by dialyzing against an EDTA/Chelex-containing buffer to generate the apoenzyme, which was then assayed in the presence of specific metal ions over a broad concentration range.
(§1) Enzyme Activity Assays: All chemicals were of analytical, metal-free grade from Sigma or Fisher. All solutions were prepared with Milli-Q water (18.2 MΩ) and treated with Chelex-100 (BioRad) to remove contaminating metals. Glassware were soaked in nitric acid (10%), then EDTA (5 mM) and rinsed liberally with Chelex-treated Milli-Q water before use. Activity assays were conducted as described previously (El Yacoubi et al, 2006) using either variable concentrations of metal or EDTA (5 mM), and 0.1 mM GTP.
(§2) Apoenzyme Preparation: Metal ions were removed from B. subtilis and N. gonorrhoeae GCYH-IB by incubating the purified, recombinant protein (0.5 ml) with EDTA (5 mM, 1 hr, 21° C.) followed by dialysis thrice against a 4-liter solution of Tris-HCl (50 mM, pH 8.0), KCl (50 mM), EDTA (5 mM) and a few grams of Chelex-100. The resulting apoenzyme was dialyzed thrice against 3 L of Tris-HCl (50 mM, pH 8.0), KCl (50 mM), and Chelex-100 to remove EDTA and passed through Chelex-100 resin (5 ml protein solution per 3 ml resin) prior to activity assays. Protein concentrations were determined spectrophotometrically.
Metal Activation Studies: The B. subtilis apoenzyme (2 μM) was incubated with varying concentrations (0.1 μM-4 mM) of metal chlorides (MnCl2, ZnCl2, MgCl2, NiCl2, CaCl2, CdCl2, CoCl2, CuCl2, CoCl3, FeCl3) or Fe(SO4) in standard buffer (100 mM HEPES, pH 8.0, 100 mM KCl) for 10 min at 37 C, and assayed for activity as described above. All assays involving Fe^2+ were conducted in an anaerobic chamber with degassed and N2-purged buffers.

[2] = target: T2, N. gonorrhoeae GCYH-IB (Neisseria gonorrhoeae, UniProt Q5F9K6); experiment: Effect of zinc on GCYH-IB activity in the presence of Mn(II); conditions: 600 μM Mn(II)
T2 construct: His6 (cleaved yes); made in house; host or cells: E. coli BL21 (DE3), pET-30 Xa/LIC plasmid pSAB-8-142
T2 sequence (Q5F9K6 1-257): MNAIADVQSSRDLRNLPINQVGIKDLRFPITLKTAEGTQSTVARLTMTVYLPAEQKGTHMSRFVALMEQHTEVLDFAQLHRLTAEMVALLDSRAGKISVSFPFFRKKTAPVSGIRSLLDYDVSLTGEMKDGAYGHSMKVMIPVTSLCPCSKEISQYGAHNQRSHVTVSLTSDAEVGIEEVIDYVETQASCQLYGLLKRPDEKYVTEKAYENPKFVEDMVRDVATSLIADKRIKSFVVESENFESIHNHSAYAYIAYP
Experimental: (§3) The presence of both Zn^2+ and Mn^2+ in a reaction assay results in diminished activity (i.e. Zn^2+ is an inhibitor versus Mn^2+, Table 6). All of the metals bind the enzymes with low affinity, such that running the protein over a G-25 column or dialyzing against metal free buffer removed the protein bound metal.
as §1, §2

[3] = target: T1, B. subtilis GCYH-IB; experiment: as above; conditions: 600 μM Mn(II)
Experimental: as §3, §1, §2

Row | SMILES | metal ion supports catalysis [1] | relative activity (%) [1] [%] | [Metal] (metal concentration for optimal activity) [1] [µM] | other results
1 | [Ca+2] [Ca(II)] | fail to support activity | 0 |  | 
2 | [Cd+2] [Cd(II)] | fail to support activity | 0 |  | 
3 | [Co+2] [Co(II)] |  | 24 ± 3 | 100 | 
4 | [Co+3] [Co(III)] |  | 0 |  | 
5 | [Cu+2] [Cu(II)] | fail to support activity | 0 |  | 
6 | O=C(O)CN(CCN(CC(=O)O)CC(=O)O)CC(=O)O [EDTA, reference compound] |  |  |  | activity in the presence of EDTA [1]: no activity was observed
7 | [Fe+2] [Fe(II)] |  | 75 ± 8 | 1000 | 
8 | [Fe+3] [Fe(III)] |  | 0 |  | 
9 | [Mg+2] [Mg(II)] | catalysis is supported | 43 ± 4 | 100 | 
10 | [Mn+2] [Mn(II)] | catalysis is supported | 100 | 500 | 
11 | [Ni+2] [Ni(II)] | catalysis is supported | 9.8 ± 1.3 | 100 | 
12 | [Zn+2] [Zn(II)] | catalysis is supported | 14 ± 1 | 50 | relative activity (%) ([2]; 0.5 μM zinc): 93%; relative activity (%) ([2]; 1 μM zinc): 68%; relative activity (%) ([2]; 2 μM zinc): 57%; relative activity (%) ([2]; 4 μM zinc): 47%; relative activity (%) ([2]; 10 μM zinc): 53%; relative activity (%) ([2]; 20 μM zinc): 45%; relative activity (%) ([2]; 40 μM zinc): 45%; relative activity (%) ([3]; 0.5 μM zinc): 84%; relative activity (%) ([3]; 1 μM zinc): 41%; relative activity (%) ([3]; 2 μM zinc): 34%; relative activity (%) ([3]; 4 μM zinc): 35%; relative activity (%) ([3]; 10 μM zinc): 35%; relative activity (%) ([3]; 20 μM zinc): 26%; relative activity (%) ([3]; 40 μM zinc): 23%; optimum metal concentration required for catalysis, fold lower than for Mn^2+ ([1]; Zn^2+ versus Mn^2+): roughly 10 fold

— patent US8328934B2, “Crystal of GTP Cyclohydrolase Type IB” (priority 2007, dated 2012)
